Columns and labels:
[1] = Drug metabolism in pH 7.4 Tris-HCl buffer assessed as amount of phosphate ester metabolite formation at […] in presence of sphingosine kinase 1,2 and Mg-ATP incubated for 30 mins by TLC based analysis relative to fingolimod
[2] = Drug metabolism in Balb/c mouse blood assessed as concentration of parent compound at 1 mg/kg, po measured at 4 hrs by LC-MS/MS analysis; assay type: ADME, organism-based; details: in vivo, 1 mg/kg, 4 h, 1 mg/kg, 4 h, read-out: Ct
[3] = Drug metabolism in Balb/c mouse blood assessed as concentration of parent compound at 30 mg/kg, po measured at 4 hrs by LC-MS/MS analysis; assay type: ADME, organism-based; details: read-out: Ct
[4] = Drug metabolism in Balb/c mouse blood assessed as concentration of phosphate ester metabolite formation at 30 mg/kg, po measured at 24 hrs by LC-MS/MS analysis; assay type: ADME, organism-based; details: in vivo
[5] = Drug metabolism in Balb/c mouse blood assessed as concentration of parent compound at 1 mg/kg, po measured at 24 hrs by LC-MS/MS analysis; assay type: ADME, organism-based; details: read-out: Ct
[6] = tested on: Mus musculus; assay: Reduction in circulating lymphocytes in Balb/c mouse blood at 30 mg/kg, po measured at 4 hrs by hematology analyzer based analysis; assay type: functional; parameters: scale not given: the % may be the effect or the level left; details: 30 mg/kg, 4 h
[7] = Drug metabolism in Balb/c mouse blood assessed as phosphate ester metabolite formation at 30 mg/kg, po measured at 4 hrs by LC-MS/MS analysis; assay type: ADME, organism-based; details: in vivo
[8] = tested on: Mus musculus; assay: Reduction in circulating lymphocytes in Balb/c mouse blood at 1 mg/kg, po measured at 4 hrs by hematology analyzer based analysis; assay type: functional; parameters: scale not given: the % may be the effect or the level left
[9] = Drug metabolism in Balb/c mouse blood assessed as concentration of phosphate ester metabolite formation at 1 mg/kg, po measured at 4 hrs by LC-MS/MS analysis; assay type: ADME, organism-based; details: in vivo, BLD = below limit of detection
[10] = Ratio of drug metabolism in Balb/c mouse blood assessed as phosphate ester metabolite to parent drug at 30 mg/kg, po measured at 24 hrs by LC-MS/MS analysis; assay type: ADME, organism-based; details: in vivo
[11] = Drug metabolism in Balb/c mouse blood assessed as concentration of phosphate ester metabolite formation at 1 mg/kg, po measured at 24 hrs by LC-MS/MS analysis; assay type: ADME, organism-based; details: in vivo, BLD = below limit of detection
[12] = tested on: Mus musculus; assay: Reduction in circulating lymphocytes in Balb/c mouse blood at 1 mg/kg, po measured at 24 hrs by hematology analyzer based analysis; assay type: functional; parameters: scale not given: the % may be the effect or the level left; details: 1 mg/kg, 24 h
[13] = Drug metabolism in Balb/c mouse blood assessed as concentration of parent compound at 30 mg/kg, po measured at 24 hrs by LC-MS/MS analysis; assay type: ADME, organism-based; details: in vivo, 30 mg/kg, 24 h, 30 mg/kg, 24 h, read-out: Ct
[14] = tested on: Mus musculus; assay: Reduction in circulating lymphocytes in Balb/c mouse blood at 30 mg/kg, po measured at 24 hrs by hematology analyzer based analysis; assay type: functional; parameters: scale not given: the % may be the effect or the level left; details: 30 mg/kg, 24 h
[15] = tested on: Rattus norvegicus; assay: Reduction in circulating lymphocytes in Lewis rat blood at 2 mg/kg, po measured at 24 hrs by hematology analyzer based analysis; assay type: functional; parameters: scale not given: the % may be the effect or the level left; details: 2 mg/kg, 24 h
[16] = Drug metabolism in Lewis rat blood assessed as concentration of parent compound at 2 mg/kg, po measured at 4 hrs by LC-MS/MS analysis; assay type: ADME, organism-based; details: read-out: Ct
[17] = Ratio of drug metabolism in Lewis rat blood assessed as phosphate ester metabolite to parent drug at 2 mg/kg, po measured at 24 hrs by LC-MS/MS analysis; assay type: ADME, organism-based; details: in vivo
[18] = tested on: Rattus norvegicus; assay: Reduction in circulating lymphocytes in Lewis rat blood at 2 mg/kg, po measured at 4 hrs by hematology analyzer based analysis; assay type: functional; parameters: scale not given: the % may be the effect or the level left
[19] = Drug metabolism in Lewis rat blood assessed as concentration of parent compound at 2 mg/kg, po measured at 24 hrs by LC-MS/MS analysis; assay type: ADME, organism-based; details: read-out: Ct
[20] = Half-life in Lewis rat at 2 mg/kg, po measured over 72 hrs by LC-MS/MS analysis; assay type: ADME, organism-based; details: in vivo
[21] = tested on: Rattus norvegicus; assay: Drug metabolism in Lewis rat blood assessed as concentration of phosphate ester metabolite formation at 2 mg/kg, po measured at 4 hrs by LC-MS/MS analysis; details: in vivo

Compound: Cn1cncc1CCC1CCc2cc([C@H]3CC[C@](N)(CO)C3)ccc2C1 (stereo partly drawn)
- Drug metabolism [1]: 5%

Compound: N[C@]1(CO)CC[C@H](c2ccc3c(c2)CC[C@@H](CCc2ccccn2)C3)C1
- Drug metabolism [1]: 4%

Compound: N[C@]1(CO)CC[C@H](c2ccc3c(c2)CC[C@@H](CCc2cccnc2)C3)C1
- Drug metabolism [1]: 3%

Compound: N[C@]1(CO)CC[C@H](c2ccc3c(c2)CC[C@@H](CCc2ncccn2)C3)C1
- Drug metabolism [1]: 4%

Compound: N[C@]1(CO)CC[C@H](c2ccc3c(c2)CC[C@H](CCc2ccccn2)C3)C1
- Drug metabolism [1]: 1.8%

Compound: N[C@]1(CO)CC[C@H](c2ccc3c(c2)CC[C@H](CCc2cccnc2)C3)C1
- Drug metabolism [1]: 24%

Compound: N[C@]1(CO)CC[C@H](c2ccc3c(c2)CC[C@H](CCc2ncccn2)C3)C1
- Drug metabolism [1]: 6%

Compound: N[C@]1(CO)CC[C@H](c2ccc3c(c2)CCC(CCc2ccncc2)C3)C1 (single isomer, unassigned)
- Drug metabolism [1]: 0%

Compound: N[C@]1(CO)CC[C@H](c2ccc3c(c2)CCC(c2ccccc2)C3)C1 (stereo in doubt; 8a)
- concentration [2]: 44 nM
- concentration at 4 h ([3]; Balb/c, blood): 1500 nM
- Drug metabolism [4]: 110 nM
- concentration at 24 h ([5]; Balb/c, blood): 27 nM
- Activity [6]: 67%
- Drug metabolism [7]: 43 nM
- Activity [8]: <10%
- Drug metabolism [9]: Bld
- Ratio [10]: 0.14
- Drug metabolism [11]: Bld
- Activity [12]: <10%
- concentration [13]: 760 nM
- Activity [14]: 88%

Compound: N[C@]1(CO)CC[C@H](c2ccc3c(c2)CCC(c2ccccc2)C3)C1 (stereo in doubt; 8b)
- concentration [2]: 16 nM
- concentration ([3]; in vivo, 30 mg/kg, 4 h, 30 mg/kg, 4 h): 750 nM
- Drug metabolism [4]: 49 nM
- concentration ([5]; in vivo, 1 mg/kg, 24 h, 1 mg/kg, 24 h): 16 nM
- Activity [6]: 72%
- Drug metabolism [7]: 36 nM
- Ratio [10]: 0.16
- Activity [12]: 36%
- concentration [13]: 300 nM
- Activity [14]: 84%

Compound: COc1cccc(CC2CCc3cc([C@H]4CC[C@](N)(CO)C4)ccc3C2)c1 (stereo in doubt; 12a)
- Activity [15]: 73%
- concentration at 4 h [16]: 50 nM
- Ratio [17]: 1
- Activity ([18]; 2 mg/kg, 4 h): 30%
- concentration at 24 h [19]: 20 nM
- half-life [20]: 15 h
- Drug metabolism [21]: 10 nM

Compound: COc1cccc(CC2CCc3cc([C@H]4CC[C@](N)(CO)C4)ccc3C2)c1 (stereo in doubt; 12b)
- Activity [15]: 45%
- Activity ([18]; 2 mg/kg, 4 h): <10%

Compound: COc1ccc(CC2CCc3cc([C@H]4CC[C@](N)(CO)C4)ccc3C2)cc1 (stereo in doubt; 13a)
- Activity [15]: 52%
- Activity [18]: <10%

Compound: COc1ccc(CC2CCc3cc([C@H]4CC[C@](N)(CO)C4)ccc3C2)cc1 (stereo in doubt; 13b)
- Activity [15]: 73%
- concentration at 4 h [16]: 90 nM
- Ratio [17]: 1.3
- concentration at 24 h [19]: 60 nM
- half-life [20]: 64 h
- Drug metabolism [21]: 50 nM
